Where “and” joins values, the source holds several entries; their conditions need not be identical. Equal entries are not always repeated.
Legend:
prostate cancer = test: PET imaging in post-radical prostatectomy prostate cancer patients with serial negative PSMA-PET; assay type: in vivo, human; details: FIGS. 7 to 10
Description: (§1) A dose of 200 MBq ^64Cu-Sar-BBN was administered to a subject by slow intravenous bolus injection. The subject was imaged by PET/CT and the images analysed to determine the location, size and volume of any cancerous lesions present, which is indicated by the decay products of the ^64Cu radioisotope detected.
All patients received on average 200 MBq of [^64Cu]Cu-SAR-BBN intravenously with 60 minutes for uptake. Patient were scanned at 60-180 minutes post-injection with arms up, from vertex to mid thighs and at each bed position for two minutes. A low dose CT scan was performed with for attenuation correction and anatomical localisation. Comparison of the images obtained from each subject after administration of both ^18FDG and ^64Cu-Sar-BBN can be seen in FIGS. 7 to 10.

[1] = test system: metastatic ER+/PR+/HER2− breast cancer; test: PET imaging in women with metastatic ER+/PR+/HER2− breast cancer; assay type: in vivo, human
Description: Example 5—Administration of ^64Cu-Sar-BBN for Radioimaging
as §1
Women with clinical progression of metastatic ER+/PR+/HER2− breast cancer requiring re-staging were administered ^18FDG and images of each patient acquired by PET. Imaging with ^64Cu-Sar-BBN PET (with 200 MBq ^64Cu-Sar-BBN administered by IV injection) was performed within 2 weeks of imaging by ^18FDG. Qualitative interpretation of the PET studies was performed by accredited nuclear medicine physicians. Quantitative analysis was performed using MIM Software, Cleveland. Comparison of the images obtained from each subject after administration of both ^18FDG and ^64Cu-Sar-BBN can be seen in FIGS. 1 to 6 (see Table 1).

[2] = test system: metastatic ER+/PR+/HER2− breast cancer; details: compared to triple negative subtypes; cited from earlier work
[3] = 18FDG PET, per patient, listed as FDG

Structure (SMILES) | lesion detection (prostate cancer) | FDG SUVmax [1, 3] | FDG TTV (total tumor volume) [1, 3] | lesion detection compared with the other imaging ([1]; breast cancer patients, FIGS. 1 to 6) | number of lesions identified ([1]; patient of FIG. 4) | sensitivity of 18FDG-PET for ER+/PR+ breast cancer [2]
O=C(O)CCc1ccc(O)c(CN(CCN(CC(=O)O)Cc2cc(CCC(=O)NCCCCCC(=O)NCCCC[C@H](NC(=O)N[C@@H](CCC(=O)O)C(=O)O)C(=O)O)ccc2O)CC(=O)O)c1.[Ga+3] [^68Ga-PSMA-11] | serial negative PSMA-PET |  |  |  |  | 
OC[C@H]1OC(O)[C@H]([18F])[C@@H](O)[C@@H]1O (stereo partly shown) [^18FDG] | failed to identify any recurrent lesions | 7 (2×) and 20 and <3 and 8 and 11 | 91 and 168 and 0 and 8 and 2 and 504 | did not reveal any tumors | less than 3 | lower sensitivity for ER+/PR+ breast cancer, when compared to triple negative

— US20260345838A1, “IDENTIFICATION AND/OR TREATMENT OF CANCER” (CLARITY PHARMACEUTICALS LIMITED, priority 2022, published 2026)
